Here are results for four molecules from patent publication US10406134B2, “Methods of treating an overweight subject” (Zafgen, Inc., priority 2010, dated 2019).

Some results are limits rather than exact numbers.

A short description of experiment [1]: 7-day oral weight loss study in diet-induced obese mice. Type of experiment: in vivo, C57BL/6NTac mice. To be noted: DIO mice; for weight change over the course of the study: 1.0 mg/kg oral once a day for 7 days. As for the experimental part:
A weight loss study was conducted in obese mice. The mice in this study were not genetically obese, but prior to and during the study, obesity was induced by a high-fat diet. Twelve week-old C57BL/6NTac mice, maintained on a 60% fat diet prior to and during the study, were separated into seven groups, eight animals per group. Average body weight of the mice was approximately 47 g at the start of the study.
Each of six groups was orally administered 1.0 mg/kg of a compound ([…] compounds B. C, D, E, F and G as disclosed herein), in 10% gelucire in deoinised water. Each of these six groups was administered a different compound. One group was orally administered fumagillin at 1.0 mg/kg (group 201) in 10% gelucire in deoinised water, and one group was administered 10% gelucire in deoinised water (vehicle). Mice received administrations once a day for 7 days.
(Data analyzed by ANCOVA with body weight on Day 1 as covariate followed by multiple tests against vehicle group: *p<0.05; **p<0.01, ***p<0.001.)
A weight loss study was conducted in obese mice, similar to Example 5. Twelve week-old C57BL/6NTac mice, maintained on a 60% fat diet prior to and during the study, were separated into seven groups, eight animals per group. Average body weight of the mice was approximately 47 g at the start of the study.
The group was orally administered […] of a compound H, in 10% gelucire in deoinised water. Mice received administrations once a day for 7 days. After 7 days, the average weight loss of the mice was 13.2%.

The nature of experiment [2]: Oral glucose tolerance test (OGTT) in overweight dogs. Type of experiment: in vivo. On the procedure:
The effects of an 8 week treatment with ZGN-201 (ZGN) on body weight and metabolic parameters in 6 overweight dogs (3 HFF and 3 chow-fed (OWC)) were evaluated. The study was comprised of three phases—pretreatment (PT: 4 weeks), treatment (ZGNTx: 8 weeks), and washout (WO: 4 weeks). FI, BW, blood chemistry and hematology, beta-hydroxybutyrate (BHB), and glycerol were assessed weekly. Oral glucose tolerance tests (OGTT, 0.9 g/kg initial BW) were performed at the end of PT, ZGNTx, and WO.

Experiment [3] is described as follows: 250-day diet admixture in C57BL/6 mice conditioned on a high fat diet. Type of experiment: in vivo. On the procedure:
(§1) Oral administration of the MetAP2 inhibitor fumagillin causes an increase in circulating ketone bodies, as measured by concentration of beta hydroxybutyrate, which indicates an increase in the breakdown of stored fat.
In addition to showing an increase in beta hydroxybutyrate concentration, C57BL/6 mice conditioned on a high fat diet and treated with fumagillin (ZGN-201) as a diet admixture (1 mg/kg daily for 250 days) also experienced a reduction in body fat by approximately 40 percent (FIG. 6). Once attaining the maximum weight reduction, mice treated daily with 1 mg/kg fumagillin maintained a weight that was 25% less than that of age-matched mice maintained on normal mouse chow diet (lean mice, FIG. 6) for the duration of the experiment.
Adipose tissue in mice fed a high-fat diet show distinctive crown-like structures not seen in lean mice. These crown-like structures were also absent from the adipose tissue of fumagillin-treated mice.

The next experiment relates to TXN in 293T cells. In words: FLAG-tagged TXN expression in transfected 293T cells (gel). In kind it is cell-based. The note with it: 293T cells transfected with FLAG-tagged TXN. As for the experimental part: (§2) EC50 of fumagillin to increase TXN levels is <10 nM.
A further experiment relates to TXN in Cos-1 cells. In words: FLAG-tagged TXN expression in transfected Cos-1 cells (gel). In kind it is cell-based. As for the experimental part: as §2
The nature of experiment [4]: 28-day oral gavage in high fat diet C57BL/6 mice, fat and lean tissue change. In kind it is in vivo. The note with it: 0.1 or 0.3 mg/kg oral gavage, 28 days. On the procedure:
C57BL/6 mice were conditioned on a low-fat diet (LF), a high fat diet (HF), or a high-fat diet and treated with fumagillin (ZGN-201) administered by oral gavage at doses of 0.1 or 0.3 mg/kg for 28 days. […] To determine whether the weight loss resulted from loss of fat or loss of lean tissue, the percentage change in fat tissue and lean tissue was determined for LF mice, HF mice, HF mice treated with 0.1 mg/kg fumagillin, and HF mice treated with 0.3 mg/kg fumagillin.
Upon histological examination, the studies of treated obese mice show no effect on growth of new blood vessels in growing fat depots and no effect on blood vessel size or density when compared to animals in which weight loss has been induced by simple energy (food) restriction.

Experiment [5] concerns Thioredoxin-1 (TXN) in B16F10 cells. The experiment in a line: N-terminal chymotryptic fragments of TXN measured by LC/MS in B16F10 cells treated with fumagillin. In kind it is cell-based. As for the experimental part:
B16F10 cells were treated with increasing concentrations of fumagillin. N-terminal chymotryptic fragments of TXN were measured by liquid chromatography/mass spectrometry (LC/MS). […] The EC50 of fumagillin to increase Met-TXN acetylated Met-TXN levels is <10 nM.

Experiment [6] is described as follows: 10-day oral gavage in C57BL/6 mice conditioned on a high fat diet. Type of experiment: in vivo. The note with it: 0.3 or 3 mg/kg daily oral gavage, 10 days.
Description: as §1

Experiment [7] can be described thus: 14-day treatment of high fat diet-fed C57BL/6 mice, body weight and food intake. In kind it is in vivo. To be noted: 1 mg/kg. On the procedure: High fat diet-fed C57BL/6 mice were treated with 1 mg/kg of the MetAP2 inhibitor fumagillin (ZGN-201, squares) or vehicle (diamonds) for 14 days (FIG. 10). Body weights (left panel) were determined daily, while food intake (right panel) was assessed every other day by measuring the food consumed by each cage of three mice over the two day period. Data shown in FIG. 10 are means±SEM, n=9 animals. […] First, during the initial two to three days of treatment, no overt changes in food intake or body weight are observed. During this time period key changes in MetAP2 substrates occur, including glyceraldehyde-3-phosphate dehydrogenase and thioredoxin (data not shown). Second, the animals enter a period of rapid weight loss that proceeds until essentially all excess fat deposits are consumed. During this second period, fat oxidation is enhanced and food intake is inhibited.
Weight loss following treatment with therapeutically relevant doses of MetAP2 inhibitors stops once animals attain a normal body composition. […] This third phase can be maintained indefinitely provided the drug is continued (see FIG. 10), or presumably can be maintained in practice through other complementary pharmacologic, dietary, or lifestyle interventions.

Experiment [8] can be described thus: 8 week oral treatment in overweight dogs, body weight and metabolic parameters. Type of experiment: in vivo. As for the experimental part: The effects of an 8 week treatment with ZGN-201 (ZGN) on body weight and metabolic parameters in 6 overweight dogs (3 HFF and 3 chow-fed (OWC)) were evaluated. […] FI, BW, blood chemistry and hematology, beta-hydroxybutyrate (BHB), and glycerol were assessed weekly. Oral glucose tolerance tests (OGTT, 0.9 g/kg initial BW) were performed at the end of PT, ZGNTx, and WO.

The mark [9] stands for this setting: diet admixture 1 mg/kg daily, 250 days.
Where [10] appears, read: High-fat high fructose dogs, WO.
Setting [11] is: High-fat high fructose dogs, ZGNTx.

Turning to `CO[C@@H]1[C@H](OC(=O)N[C@@H](C(N)=O)C(C)C)CC[C@]2(CO2)[C@H]1[C@@]1(C)O[C@@H]1CC=C(C)C` [B], the “weight change over the course of the study” value (“weight change over the course” for short) in [1] is “lost weight”.

Take `CO[C@@H]1[C@H](OC(=O)NCCC2CCCN2C)CC[C@]2(CO2)[C@H]1[C@@]1(C)O[C@@H]1CC=C(C)C` (some centres unmarked) [C]: the “weight change over the course” value in experiment [1] is recorded as “lost weight”.

`CCN(CC)C/C=C\c1ccccc1S(=O)(=O)Nc1ccc2c(c1C(=O)O)CCCC2` [H] came in with an average weight loss in experiment [1] (100.0 mg/kg oral once a day, after 7 days) of 13.2%.

For orientation: EC50 means the concentration needed to bring the measured effect to its halfway point. Consider `CO[C@@H]1[C@H](OC(=O)/C=C/C=C/C=C/C=C/C(=O)O)CC[C@]2(CO2)[C@H]1[C@@]1(C)O[C@@H]1CC=C(C)C` [fumagillin], for which, in experiment [2] (end of 8 week treatment, OGTT), the “reduction in insulin secretion (C-peptide AUC)” value was 32%. In addition, the “reversal of the abnormality in the plasma glucose excursion during the OGTT” value in experiment [2] (end of 8 week treatment, OGTT 0.9 g/kg) is 75%. Moreover, in experiment [2] (end of washout, OGTT), the “improvement in plasma glucose after the drug was washed out” value is reported as “completely reversed”. In experiment [3] (1 mg/kg daily, 250 days), the “retroperitoneal fat pad weight” value is on record as “more similar to that of age-matched lean mice”; the “size and appearance of epididymal fat, peri-renal fat and liver” value is “more similar to that of age-matched lean mice”. Besides, the “maintained weight less than that of age-matched lean mice on normal chow” value in experiment [3] (1 mg/kg daily, after maximum weight reduction) is given as 25%. Moreover, the “fasted glucose and insulin levels, insulin-glucose product” value in [3] (1 mg/kg, high fat diet mice) is on record as “more similar to that of age-matched lean mice”. Further, in [3] (setting [9]), the “hydroxybutyrate concentration at longer time points” value is given as “Increased hydroxybutyrate concentration persisted” and the “reduction in body fat” value was “approximately 40%”. In addition, in [3] (high fat diet mice), the adipocyte size entry is “more similar to that of age-matched lean mice” and the “crown-like structures in adipose tissue” value is recorded as “absent”. The sensitivity to insulin result in experiment [3] (mice on a high fat diet) was “normalizes sensitivity to insulin”. Also, the “weight change over the course” value in experiment [1] is reported as “lost the most weight”. Moreover, the “expression of TXN” value with TXN in 293T cells was “significantly increased”. Moreover, the EC50 in the experiment with TXN in Cos-1 cells (Chlorocebus aethiops, FIG. 4 gel, cell line (Cos-1 or 293T) not specified, read-out: EC50 to increase TXN levels) was less than 10 nM. Besides, the “expression of TXN” value with TXN in Cos-1 cells (Cos-1 cells transfected with FLAG-tagged TXN) is “significantly increased”. Also, the body weight entry in experiment [4] is given as “reduction in body weight down to the level of low fat fed mice”. Further, in experiment [4] (HF mice), the reduction in fat is recorded as 40-50% and the “reduction in lean tissue” value is on record as 5-10%. Further, the EC50 in experiment [5] (Mus musculus, B16-F10, read-out: EC50 to increase Met-TXN acetylated Met-TXN levels) is less than 10 nM. In experiment [5] (increasing concentrations), the “accumulation of N-acetyl TXN(1-4)” value is “significant accumulation” and the “cellular level of TXN containing an intact N-terminal methionine [TXN(1-4)]” value is “significantly increased”. Also, in experiment [6], the beta hydroxybutyrate concentrations result was “increase” and the “free fatty acid concentration” value was “without an increase”. Also, in experiment [7] (14 days, second phase), the “food intake during period of rapid weight loss” value is listed as “inhibited”. Besides, the “food intake after weight loss reaches a nadir” value in experiment [7] (third phase) is “returns to normal levels”. Moreover, in experiment [8] (HFF dogs), the “reduction of FI” value stood at 29%. In [8] (HFF dogs, daily oral, 8 weeks), the “loss of body weight” value was “approximately 8%” and the “loss of excess BW” value is given as 81%. Moreover, the “weight loss sustained after discontinuation of treatment” value in [8] (HFF dogs, eight to ten weeks following discontinuation) is “approximately one half of the initial weight loss was sustained”. In experiment [8] (setting [10]), this molecule showed a BHB of 39 ± 7 µM, an FI of 1657 ± 147 kcal/day and a Glycerol of 66 ± 25 µM. The BW in [8] (High-fat high fructose dogs, WO (4 weeks washout)) stood at 31.7 ± 2.9 kg. In addition, in [8] (setting [11]), the BHB came to 76 ± 9 µM, the FI stood at 1187 ± 258 kcal/day and the Glycerol was determined as 131 ± 54 µM. For the same molecule, the BW in experiment [8] (High-fat high fructose dogs, ZGNTx (8 weeks treatment)) was 30.8 ± 3.4 kg. Besides, the “reduction of FI” value in experiment [8] (OWC dogs) came out at 9%. Moreover, the weight gain entry in experiment [8] (OWC dogs, daily oral, 8 weeks) was “inhibited weight gain”. In [8] (Overweight chow dogs, WO), this molecule displayed a BHB of 44 ± 5 µM, a BW of 18.6 ± 0.7 kg, an FI of 1116 ± 22 kcal/day and a Glycerol of 86 ± 33 µM. In [8] (Overweight chow dogs, ZGNTx), this molecule registered a BHB of 48 ± 11 µM, a BW of 17.8 ± 0.5 kg, an FI of 1255 ± 64 kcal/day and a Glycerol of 143 ± 26 µM. Moreover, in [8] (overweight dogs, treatment), the BHB levels result is “increased in HFF only” and the glycerol levels entry is given as “increased”.
